# Measurements taken from patent US20150258108A1 (priority 2014, published 2015).
# Where “and” joins values, the source holds several entries; their conditions need not be identical. Identical values can stand only once.
# How the values were obtained:
# [1] = Time to resumption of OST and opiate withdrawal scales (COWS, SOWS, OOWS); format: in vivo, human; conditions: opioid-dependent patients
# [2] = molecular target: T1, human OPRK (κ-opioid receptor) (Homo sapiens, UniProt P41145); assay: biochemical; format: binding; conditions: Ki, OPRK, [3H]-U69,593 binding; This work
# T1 construct: purchased PerkinElmer Life Sciences (Boston, Mass.)
# T1 sequence (P41145 whole entry): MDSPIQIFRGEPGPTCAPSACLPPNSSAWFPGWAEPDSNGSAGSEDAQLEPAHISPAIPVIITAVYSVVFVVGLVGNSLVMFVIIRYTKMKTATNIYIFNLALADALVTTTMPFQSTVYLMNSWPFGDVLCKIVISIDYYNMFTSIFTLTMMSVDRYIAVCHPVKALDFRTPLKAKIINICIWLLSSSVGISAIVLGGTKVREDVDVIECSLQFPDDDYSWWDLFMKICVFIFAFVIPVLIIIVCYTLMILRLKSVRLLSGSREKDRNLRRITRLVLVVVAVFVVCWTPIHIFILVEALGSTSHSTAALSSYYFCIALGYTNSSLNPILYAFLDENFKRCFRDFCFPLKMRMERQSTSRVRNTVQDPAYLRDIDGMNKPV
# [3] = tested on: human OPRK (κ-opioid receptor); assay: biochemical; format: binding; conditions: ΔpKi = pKi(OPRK)-pKi(OPRM)
# OPRK = OPRK (Homo sapiens, UniProt P41145); assay: Activation and inhibition bias quantification G-protein/Beta-arrestin2
# Chain of OPRK (P41145 whole entry): as above
# Procedure: Coupling efficiency (e-coupling) values indicated the relationship between the apparent binding affinity Ki versus the apparent functional potency EC50 of a given agonist ligand and used the equation pKi-pEC50. […] For inhibitory ligands, e-signal was calculated using maximal level of inhibition (Imax) normalized from 0 (basal, buffer) to 1 (agonist without inhibitor). Bias-coupling (quantification of pathway bias) was evaluated by subtracting the EC50 or the Ke issued from the G-protein pathway assays by those issued from β-arrestin pathway assays for a given ligand and in a linear (nM) scale. Bias-efficacy in favor of the G-protein pathway was evaluated by dividing the functional activation and the functional inhibition maximum responses (e-signal) from the G-protein pathway by the beta-arrestin pathway assays for a given ligand.
# human OPRM [4] = molecular target: T2, human OPRM (Homo sapiens, UniProt P35372); assay: cell-based; format: cell-based; parameters: host or cells: CHO-K1
# T2 sequence (P35372 whole entry): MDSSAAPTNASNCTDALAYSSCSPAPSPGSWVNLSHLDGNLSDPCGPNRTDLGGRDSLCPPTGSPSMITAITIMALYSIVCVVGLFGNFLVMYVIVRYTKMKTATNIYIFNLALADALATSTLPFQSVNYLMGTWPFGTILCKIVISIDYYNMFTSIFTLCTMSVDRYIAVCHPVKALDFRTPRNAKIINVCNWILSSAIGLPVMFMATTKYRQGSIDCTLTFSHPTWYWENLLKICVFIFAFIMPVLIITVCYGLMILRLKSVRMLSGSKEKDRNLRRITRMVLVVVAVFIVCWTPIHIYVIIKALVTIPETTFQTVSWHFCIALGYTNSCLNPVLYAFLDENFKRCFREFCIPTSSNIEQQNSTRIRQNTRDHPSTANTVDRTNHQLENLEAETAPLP
# [5] = Ascending single-dose pharmacokinetics of noribogaine in healthy volunteers; conditions: for CL/F / Tmax: fasted healthy males, mean (SD), n = 6; for mean AUC/24 hr / mean AUC/24: fasting, serum
# [6] = Treatment emergent adverse events in opioid-dependent participants (Phase IB)
# [7] = molecular target: human OPRM (μ-opioid receptor) (Homo sapiens, UniProt P35372); assay: biochemical; format: binding; parameters: expressed in transfected cells; host or cells: CHO-K1 (cell lines provided by Dr. Toll, Torrey Pines Institute)
# Chain of human OPRM (μ-opioid receptor) (P35372 whole entry): as above
# human OPRM [8] = molecular target: T2, human OPRM; assay: biochemical; format: biochemical; parameters: expressed in transfected cells; host or cells: CHO-K1 (cell lines provided by Dr. Toll, Torrey Pines Institute)
# [9] = 60 mg single dose, opioid-dependent patients, N = 6, events:subjects (%)
# [10] = 120 mg single dose, opioid-dependent patients, N = 6, events:subjects (%)
# [11] = 180 mg single dose, opioid-dependent patients, N = 6, events:subjects (%)
smiles,measurement,setting,value
CC[C@H]1CC2C[C@H]3c4[nH]c5ccc(O)cc5c4CCN(C2)C13 [Noribogaine],"withdrawal symptoms (COWS, OOWS, SOWS) over first six hours",[1]; 120 mg,generally experienced fewer withdrawal symptoms than the other patients
same,average time to resumption of opioids (OST),[1]; single 120 mg dose,greater than 20 hours
same,Ki,[2],0.72 µM and 0.7 µM
same,Specificity ΔpKi,[3],0.4 and 0.3
same,Bias G-protein/Beta-arrestin2: Bias-coupling,OPRK; Activation,32
same,Bias G-protein/Beta-arrestin2: Bias-efficacy,OPRK; Activation,0.59
same,Bias G-protein/Beta-arrestin2: Bias-efficacy,OPRK; Inhibition,−0.35
same,Bias G-protein/Beta-arrestin2: Bias-coupling,OPRK; Inhibition (fold more potent at inhibiting Dynorphin A-induced β-arrestin-2 recruitment than G-protein activation),144
same,EC50,human OPRM [4],~1.15 µM
same,Efficacy,human OPRM [4],3%
same,IC50,human OPRM [4],~57 µM
same,Ke,human OPRM [4],~4.8 µM
same,agonism at OPRM β-arrestin-2 recruitment,human OPRM [4],not an agonist at OPRM
same,e-coupling,human OPRM [4],~1.10
same,inhibition of agonist response (up to),human OPRM [4],60-100%
same,Kb,"human OPRM [4]; pEC50, pKe",63.1 µM
same,CL/F,[5]; 3 mg single oral dose,41.4 (7.0) L/h
same,CL/F,[5]; 10 mg single oral dose,42.3 (12.0) L/h
same,Tmax,[5]; 30 mg noribogaine single oral dose,1.75 h
same,CL/F,[5]; 30 mg single oral dose,46.9 (16.4) L/h
same,Tmax,[5]; 60 mg noribogaine single oral dose,1.75 h
same,CL/F,[5]; 60 mg single oral dose,34.0 (11.4) L/h
same,Cmax and AUC versus dose,[5]; 3-60 mg single oral doses,increased linearly with dose
same,time of peak concentrations after oral noribogaine dosing,"[5]; across dose groups, healthy volunteers",2 to 3 h
same,Mean half-life,"[5]; across dose groups, healthy volunteers, plasma",28 to 50 h
same,Vd,"[5]; male, human, plasma, oral",1420 to 3090 L
same,mean AUC/24 hr,[5]; single dose of 3 mg noribogaine free base,3.1 ng/mL
same,mean AUC/24 hr,[5]; single dose of 10 mg noribogaine free base,10.6 ng/mL
same,mean AUC/24,[5]; single dose of 30 mg noribogaine free base,29.2 ng/mL
same,mean AUC/24,[5]; single dose of 60 mg noribogaine free base,61 ng/mL
same,TEAE: Catheter Site Infection,[6]; [9],0
same,TEAE: Catheter Site Pain,[6]; [9],0
same,TEAE: Catheter Site Related Reaction,[6]; [9],0
same,TEAE: Cellulitis,[6]; [9],0
same,TEAE: Diarrhoea,[6]; [9],0
same,TEAE: Dry Mouth,[6]; [9],0
same,TEAE: Ear and Labyrinth Disorders,[6]; [9],0
same,TEAE: Epistaxis,[6]; [9],0
same,TEAE: Euphoric Mood,[6]; [9],0
same,TEAE: General Disorders and Administration Site Conditions,[6]; [9],0
same,TEAE: Hyperaesthesia,[6]; [9],0
same,TEAE: Infections and Infestations,[6]; [9],0
same,TEAE: Limb Discomfort,[6]; [9],0
same,TEAE: Malaise,[6]; [9],0
same,TEAE: Nausea,[6]; [9],0
same,TEAE: Oropharyngeal Pain,[6]; [9],0
same,TEAE: Pseudoparalysis,[6]; [9],0
same,"TEAE: Respiratory, Thoracic and Mediastinal Disorders",[6]; [9],0
same,TEAE: Rhinorrhoea,[6]; [9],0
same,TEAE: Skin Discomfort,[6]; [9],0
same,TEAE: Skin Irritation,[6]; [9],0
same,TEAE: Skin and Subcutaneous Tissue Disorders,[6]; [9],0
same,TEAE: Somnoience,[6]; [9],0
same,TEAE: Tinnitus,[6]; [9],0
same,TEAE: Tremor,[6]; [9],0
same,TEAE: Urinary Tract Infection,[6]; [9],0
same,TEAE: Vomiting,[6]; [9],0
same,TEAE: Back Pain,[6]; [10],0
same,TEAE: Catheter Site Infection,[6]; [10],0
same,TEAE: Catheter Site Related Reaction,[6]; [10],0
same,TEAE: Depressed Mood,[6]; [10],0
same,TEAE: Dry Eye,[6]; [10],0
same,TEAE: Dyspepsia,[6]; [10],0
same,TEAE: Euphoric Mood,[6]; [10],0
same,TEAE: Limb Discomfort,[6]; [10],0
same,TEAE: Malaise,[6]; [10],0
same,TEAE: Musculoskeletal and Connective Tissue Disorders,[6]; [10],0
same,TEAE: Psychiatric Disorders,[6]; [10],0
same,TEAE: Somnoience,[6]; [10],0
same,TEAE: Urinary Tract Infection,[6]; [10],0
same,TEAE: Catheter Site Infection,[6]; [11],0
same,TEAE: Catheter Site Pain,[6]; [11],0
same,TEAE: Depressed Mood,[6]; [11],0
same,TEAE: Diarrhoea,[6]; [11],0
same,TEAE: Dry Eye,[6]; [11],0
same,TEAE: Dyspepsia,[6]; [11],0
same,TEAE: Ear and Labyrinth Disorders,[6]; [11],0
same,TEAE: Epistaxis,[6]; [11],0
same,TEAE: Euphoric Mood,[6]; [11],0
same,TEAE: Hyperaesthesia,[6]; [11],0
same,TEAE: Malaise,[6]; [11],0
same,TEAE: Oropharyngeal Pain,[6]; [11],0
same,TEAE: Pseudoparalysis,[6]; [11],0
same,TEAE: Psychiatric Disorders,[6]; [11],0
same,"TEAE: Respiratory, Thoracic and Mediastinal Disorders",[6]; [11],0
same,TEAE: Rhinorrhoea,[6]; [11],0
same,TEAE: Skin Discomfort,[6]; [11],0
same,TEAE: Skin Irritation,[6]; [11],0
same,TEAE: Skin and Subcutaneous Tissue Disorders,[6]; [11],0
same,TEAE: Somnoience,[6]; [11],0
same,TEAE: Tinnitus,[6]; [11],0
same,TEAE: Tremor,[6]; [11],0
same,hallucinatory effects,"[6]; 60, 120, 180 mg single dose, opioid-dependent participants",no hallucinatory effects
same,Ki,[7],1.52 ± 0.3 µM
same,IC50,human OPRM [8],134 ± 17 µM
same,Ke,human OPRM [8],19 ± 5 µM
same,Ke (functional inhibition constant),human OPRM [8],19.203 µM
same,"antagonist potency, OPRM G-protein pathway",human OPRM [8],20 µM
same,e-coupling,human OPRM [8],1.02 and 1.10
same,EC50,human OPRM [8]; EC50,16.1 µM
same,Kb,human OPRM [8]; Ke,28 ± 14 µM
same,EC50,human OPRM [8]; approximated EC50,~16 µM
same,Kb,"human OPRM [8]; pEC50, (Ke): pKe",20 µM
